Assay results as given in US7772180B2, “Hepatitis C virus inhibitors” (Bristol-Myers Squibb Company, priority 2006, dated 2010).
Read-outs that look alike come from different tables or passages of the source.

Assays:
[1] = tested on: HCV replicon (strain 1b) in HUH-7 cells; assay: HCV replicon FRET assay; format: cell-based, Hepatitis C virus
[2] = molecular target: T1, HCV NS3/4A protease complex, BMS strain (UniProt P27958, species not given/STRAIN_BMS); assay: FRET peptide assay to monitor HCV NS3/4A proteolytic activity (BMS strain); format: biochemical, Hepatitis C virus (genotype 1a)
T1 construct: other: NS3/4A BMS strain; activity range class; numeric values, unit not given; said of H77 and J4L6S; fused on or other part: A three-lysine solubilising tail at the C-terminus of NS4A; A His tag is implied by the pET21b vector and Ni-NTA purification; Both are printed for the H77 and J4L6S constructs and apply to BMS by inference
T1 sequence (P27958 1027-1657, change not shown, one chain of several): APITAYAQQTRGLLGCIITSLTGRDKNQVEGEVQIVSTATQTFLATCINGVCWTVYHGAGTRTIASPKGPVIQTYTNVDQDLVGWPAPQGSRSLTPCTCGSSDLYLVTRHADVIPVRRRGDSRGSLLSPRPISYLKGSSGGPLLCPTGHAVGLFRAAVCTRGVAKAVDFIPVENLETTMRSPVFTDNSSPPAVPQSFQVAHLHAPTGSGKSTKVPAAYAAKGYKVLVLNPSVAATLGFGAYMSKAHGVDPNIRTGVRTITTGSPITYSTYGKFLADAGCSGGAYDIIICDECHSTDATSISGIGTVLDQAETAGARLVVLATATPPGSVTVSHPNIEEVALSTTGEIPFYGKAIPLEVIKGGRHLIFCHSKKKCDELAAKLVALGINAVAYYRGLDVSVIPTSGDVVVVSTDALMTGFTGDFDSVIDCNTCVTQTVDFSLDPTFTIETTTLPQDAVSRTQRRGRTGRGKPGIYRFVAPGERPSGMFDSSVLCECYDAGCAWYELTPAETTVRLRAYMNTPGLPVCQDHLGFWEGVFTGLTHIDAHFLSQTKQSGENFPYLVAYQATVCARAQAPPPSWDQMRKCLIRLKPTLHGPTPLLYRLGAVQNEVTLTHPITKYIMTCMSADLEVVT
Summary of the method: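 Purified recombinant NS3/4A complex from genotype 1a BMS strain, 2-3 nM final, with RET S1 EDANS/DABCYL depsipeptide substrate at 2 μM final in HEPES pH 7.5, NaCl, Triton, glycerol, βME. Cleavage followed in real time by fluorescence. For high-potency compounds: 50 μg/ml BSA added, protease lowered to 300 pM.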

[3] = Hepatitis C virus, Huh-7, read-out: HCV Pro Replicon (EC50), HCV replicon cell assay, activity range class
[4] = read-out: HCV Protease (IC50); NS3/4A BMS strain; activity range class
[5] = Hepatitis C virus, Huh-7, read-out: HCV Pro Replicon (EC50), HCV replicon cell assay, numeric values, unit inferred
[6] = read-out: HCV Protease (IC50); NS3/4A BMS strain; numeric values, unit inferred

Compound	EC50 [1, 3]	IC50 [2, 4]	further results
C=C[C@@H]1C[C@]1(NC(=O)[C@@H]1C[C@@H](Oc2ncc(OC)c3ccc(Cl)cc23)CN1C(=O)[C@@H](Nc1cccc(F)c1F)C(C)(C)C)C(=O)NS(=O)(=O)C1CC1 [208 first isomer, N-(2,3-difluorophenyl)-3-methyl-L-valyl-(4R)-4-((7-chloro-4-methoxy-1-isoquinolinyl)oxy)-N-((1R,2S)-1-((cyclopropylsulfonyl)carbamoyl)-2-vinylcyclopropyl)-L-prolinamide]	3 to 100 nM	0.6 to 20 nM	–
C=C[C@@H]1C[C@]1(NC(=O)[C@@H]1C[C@@H](Oc2ncc(OC)c3ccc(Cl)cc23)CN1C(=O)C(Nc1cc(C)nc(C)c1)C(C)(C)C)C(=O)NS(=O)(=O)C1CC1 (single isomer, unassigned) [Compound 29B]	–	–	EC50 [1, 5]: 14900 nM; IC50 [2, 6]: 249 nM
C=C[C@@H]1C[C@]1(NC(=O)[C@@H]1C[C@@H](Oc2ncc(OC)c3ccc(Cl)cc23)CN1C(=O)[C@H](Nc1cccc(S(N)(=O)=O)c1)C(C)(C)C)C(=O)NS(=O)(=O)C1CC1 [207 second isomer, 3-methyl-N-(3-sulfamoylphenyl)-D-valyl-(4R)-4-((7-chloro-4-methoxy-1-isoquinolinyl)oxy)-N-((1R,2S)-1-((cyclopropylsulfonyl)carbamoyl)-2-vinylcyclopropyl)-L-prolinamide]	> 1000 nM	> 200 nM	–
C=C[C@@H]1C[C@]1(NC(=O)[C@@H]1C[C@@H](Oc2ncc(OC)c3ccc(Cl)cc23)CN1C(=O)C(Nc1cc(C)cc(C)n1)C(C)(C)C)C(=O)NS(=O)(=O)C1CC1 (single isomer, unassigned) [22 second isomer]	–	0.6 to 20 nM	EC50 ([1]; read-out: HCV Pro Replicon (EC50), HCV replicon cell assay, activity range class): 100 to 1000 nM
C=C[C@@H]1C[C@]1(NC(=O)[C@@H]1C[C@@H](Oc2ncc(OC)c3ccc(Cl)cc23)CN1C(=O)[C@H](Nc1cccc(S(=O)(=O)NC(C)(C)C)c1)C(C)(C)C)C(=O)NS(=O)(=O)C1CC1 [206 second isomer, N-(3-(tert-butylsulfamoyl)phenyl)-3-methyl-D-valyl-(4R)-4-((7-chloro-4-methoxy-1-isoquinolinyl)oxy)-N-((1R,2S)-1-((cyclopropylsulfonyl)carbamoyl)-2-vinylcyclopropyl)-L-prolinamide]	> 1000 nM	> 200 nM	–
C=C[C@@H]1C[C@]1(NC(=O)[C@@H]1C[C@@H](Oc2nccc3cc(OC)ccc23)CN1C(=O)[C@@H](Nc1nc(OC)nc(OC)n1)C(C)C)C(=O)NS(=O)(=O)C1CC1 [Compound 4, N-(4,6-dimethoxy-1,3,5-triazin-2-yl)valyl-(4R)—N-((1R,2S)-1-((cyclopropylsulfonyl)carbamoyl)-2-vinylcyclopropyl)-4-((6-methoxy-1-isoquinolinyl)oxy)-L-prolinamide]	> 1000 nM	20 to 200 nM	–
C=C[C@@H]1C[C@]1(NC(=O)[C@@H]1C[C@@H](Oc2nccc3cc(OC)ccc23)CN1C(=O)C(Nc1cc(C#N)ccn1)C(C)C)C(=O)NS(=O)(=O)C1CC1 (mixture of isomers) [Compound 11, N-(4-cyano-2-pyridinyl)valyl-(4R)—N-((1R,2S)-1-((cyclopropylsulfonyl)carbamoyl)-2-vinylcyclopropyl)-4-((6-methoxy-1-isoquinolinyl)oxy)-L-prolinamide]	3 to 100 nM	0.6 to 20 nM	–
C=C[C@@H]1C[C@]1(NC(=O)[C@@H]1C[C@@H](Oc2ncc(OC)c3ccc(Cl)cc23)CN1C(=O)C(Nc1cncc(C(F)(F)F)c1)C(C)(C)C)C(=O)NS(=O)(=O)C1CC1 (single isomer, unassigned) [27 second isomer]	3 to 100 nM	20 to 200 nM	–
C=C[C@@H]1C[C@]1(NC(=O)[C@@H]1C[C@@H](Oc2ncc(OC)c3ccc(Cl)cc23)CN1C(=O)C(Nc1cncnc1)C(C)C)C(=O)NS(=O)(=O)C1CC1 (single isomer, unassigned) [24 second isomer]	> 1000 nM	> 200 nM	–
C=C[C@@H]1C[C@]1(NC(=O)[C@@H]1C[C@@H](Oc2ncc(OC)c3ccc(Cl)cc23)CN1C(=O)[C@H](Nc1cccc(S(=O)(=O)N(C)C)c1)C(C)(C)C)C(=O)NS(=O)(=O)C1CC1 [219 second isomer, N-(3-(dimethylsulfamoyl)phenyl)-3-methyl-D-valyl-(4R)-4-((7-chloro-4-methoxy-1-isoquinolinyl)oxy)-N-((1R,2S)-1-((cyclopropylsulfonyl)carbamoyl)-2-vinylcyclopropyl)-L-prolinamide]	3 to 100 nM	0.6 to 20 nM	–
C=C[C@@H]1C[C@]1(NC(=O)[C@@H]1C[C@@H](Oc2nccc3cc(OC)ccc23)CN1C(=O)[C@H](Nc1ccccc1)C(C)(C)C)C(=O)NS(=O)(=O)C1CC1 [Compound 15B, 3-methyl-N-phenyl-D-valyl-(4R)—N-((1R,2S)-1-((cyclopropylsulfonyl)carbamoyl)-2-vinylcyclopropyl)-4-((6-methoxy-1-isoquinolinyl)oxy)-L-prolinamide]	–	–	EC50 [1, 5]: 3380 nM; IC50 [2, 6]: 1900 nM
C=C[C@@H]1C[C@]1(NC(=O)[C@@H]1C[C@@H](Oc2ncc(OC)c3ccc(Cl)cc23)CN1C(=O)[C@@H](Nc1ccc(C(=O)NC(C)(C)c2ccccc2)cc1)C(C)(C)C)C(=O)NS(=O)(=O)C1CC1 [Compound 222A, 3-methyl-N-(4-((1-methyl-1-phenylethyl)carbamoyl)phenyl)-L-valyl-(4R)-4-((7-chloro-4-methoxy-1-isoquinolinyl)oxy)-N-((1R2S)-1-((cyclopropylsulfonl)carbamoyl)-2-vinylcyclopropyl)-L-prolinamide]	–	–	EC50 ([1]; HCV replicon cell assay, activity range class, read-out: HCV Pro Replicon (EC50)): 3 to 100 nM; IC50 ([2]; NS3/4A BMS strain; activity range class; read-out: HCV Protease (IC50)): 0.6 to 20 nM
C=C[C@@H]1C[C@]1(NC(=O)[C@@H]1C[C@@H](Oc2ncc(OC)c3ccc(Cl)cc23)CN1C(=O)[C@H](Nc1ccc(C#N)cc1)C(C)(C)C)C(=O)NS(=O)(=O)C1CC1 [205 second isomer, N-(4-cyanophenyl)-3-methyl-D-valyl-(4R)-4-((7-chloro-4-methoxy-1-isoquinolinyl)oxy)-N-((1R,2S)-1-((cyclopropylsulfonyl)carbamoyl)-2-vinylcyclopropyl)-L-prolinamide]	3 to 100 nM	> 200 nM	–
C=C[C@@H]1C[C@]1(NC(=O)[C@@H]1C[C@@H](Oc2ncc(OC)c3ccc(Cl)cc23)CN1C(=O)C(Nc1ccc(C)nc1)C(C)(C)C)C(=O)NS(=O)(=O)C1CC1 (single isomer, unassigned) [26 first isomer]	3 to 100 nM	0.6 to 20 nM	–
C=C[C@@H]1C[C@]1(NC(=O)[C@@H]1C[C@@H](Oc2nccc3cc(OC)ccc23)CN1C(=O)[C@@H](Nc1cccnc1)C(C)(C)C)C(=O)NS(=O)(=O)C1CC1 [13 first isomer, 3-methyl-N-3-pyridinyl-L-valyl-(4R)—N-((1R,2S)-1-((cyclopropylsulfonyl)carbamoyl)-2-vinylcyclopropyl)-4-((6-methoxy-1-isoquinolinyl)oxy)-L-prolinamide]	3 to 100 nM	20 to 200 nM	–
C=C[C@@H]1C[C@]1(NC(=O)[C@@H]1C[C@@H](Oc2ncc(OC)c3ccc(Cl)cc23)CN1C(=O)C(Nc1nsnc1OC)C(C)C)C(=O)NS(=O)(=O)C1CC1 (stereo partly drawn) [Compound 242]	3 to 100 nM	0.6 to 20 nM	–
C=C[C@@H]1C[C@]1(NC(=O)[C@@H]1C[C@@H](Oc2ncc(OC)c3ccc(Cl)cc23)CN1C(=O)C(C)Nc1nsnc1OC)C(=O)NS(=O)(=O)C1CC1 (stereo partly drawn) [Compound 238]	100 to 1000 nM	20 to 200 nM	–
C=C[C@@H]1C[C@]1(NC(=O)[C@@H]1C[C@@H](Oc2nccc3cc(OC)ccc23)CN1C(=O)[C@@H](NC1=NCCCS1)C(C)(C)C)C(=O)NS(=O)(=O)C1CC1 [Compound 36, N-(5,6-dihydro-4H-1,3-thiazin-2-yl)-3-methyl-L-valyl-(4R)—N-((1R,2S)-1-((cyclopropylsulfonyl)carbamoyl)-2-vinylcyclopropyl)-4-((6-methoxy-1-isoquinolinyl)oxy)-L-prolinamide]	–	–	EC50 [1, 5]: 1420 nM; IC50 [2, 6]: 73 nM
C=C[C@@H]1C[C@]1(NC(=O)[C@@H]1C[C@@H](Oc2ncc(OC)c3ccc(Cl)cc23)CN1C(=O)[C@H](Nc1ccc(F)c(F)c1)C(C)(C)C)C(=O)NS(=O)(=O)C1CC1 [220 second isomer, N-(3,4-difluorophenyl)-3-methyl-D-valyl-(4R)-4-((7-chloro-4-methoxy-1-isoquinolinyl)oxy)-N-((1R,2S)-1-((cyclopropylsulfonyl)carbamoyl)-2-vinylcyclopropyl)-L-prolinamide]	100 to 1000 nM	> 200 nM	–
C=C[C@@H]1C[C@]1(NC(=O)[C@@H]1C[C@@H](Oc2ncc(OC)c3ccc(Cl)cc23)CN1C(=O)[C@@H](Nc1ccc(C(N)=O)cc1)C(C)(C)C)C(=O)NS(=O)(=O)C1CC1 [226 first isomer, N-(4-carbamoylphenyl)-3-methyl-L-valyl-(4R)-4-((7-chloro-4-methoxy-1-isoquinolinyl)oxy)-N-((1R,2S)-1-((cyclopropylsulfonyl)carbamoyl)-2-vinylcyclopropyl)-L-prolinamide]	3 to 100 nM	0.6 to 20 nM	–
C=C[C@@H]1C[C@]1(NC(=O)[C@@H]1C[C@@H](Oc2nccc3cc(OC)ccc23)CN1C(=O)[C@@H](Nc1cc(C)cc(C)n1)C(C)C)C(=O)NS(=O)(=O)C1CC1 [Compound 1A, N-(4,6-dimethyl-2-pyridinyl)-L-valyl-(4R)—N-((1R,2S)-1-((cyclopropylsulfonyl)carbamoyl)-2-vinylcyclopropyl)-4-((6-methoxy-1-isoquinolinyl)oxy)-L-prolinamide]	3 to 100 nM	0.6 to 20 nM	–
